Test results: US20190216707A1, “COMPOSITION FOR PREVENTING HAIR LOSS AND PROMOTING HAIR GROWTH, COMPRISING PHYTOESTROGEN AS AN ACTIVE INGREDIENT” (STEMORE CO., LTD., priority 2016, published 2019)

Key:
[1] = system: immortalized dermal papilla cells (I-DPCs); test: Proliferation of immortalized dermal papilla cells (Incucyte, phase object confluence); format: cell-based, Human; conditions: FIGS. 1A to 1D; for effect on the proliferation of I-DPCs (phase object confluence, %): 0.1 μM, 1 μM or 10 μM, cultured for 72 hours; for proliferation of I-DPCs: concentration of 1 μM to 10 μM
Description: Human-derived immortalized dermal papilla cells (I-DPCs; donated by Professor Sungyoung Kwan of the College of Medicine at Kyungpook National University; Shin, Seung-Hyun, et al. “Establishment and characterization of an immortalized human dermal papilla cell line.” BMB reports 44.8 (2011): 512-516.) were cultured in Follicle Dermal Papilla Cell Growth Medium supplemented with 10% fetal bovine serum […] and penicillin-streptomycin antibiotics for 3 days to prepare a dermal papilla cell line. On day 3 of culture, the cells cultured in the culture dish were transferred to a 96-well plate, and when the cells were attached to the bottom of each well, each well was treated with DO-10B, DO-14, DO-17, and DO-20 at a concentration of 10 μM and cultured for 48 hours.
In particular, the I-DP cell line was prepared by culturing under the same conditions as in Example <2-1>, and the cells were treated with DO-10B, DO-14, DO-17, and DO-20 at a concentration of 0.1 μM, 1 μM, or 10 μM in a cell culture medium, and then cultured for a total of 72 hours. At 0, 12, 24, 36, 48, 60, and 72 hours after the start of culture, the degree of saturation of cells attached to the bottom of each well (phase object confluence, %) was confirmed using the Incucyte System™.

[2] = system: C3H/HeNCrljOri mice; test: Hair growth promotion on the hair-removed back of mice; format: in vivo; conditions: PBS containing 1 μM compound subcutaneously injected, 2 weeks; for hair cycle induction / hair growth, visually confirmed, compared to the non-administered group: FIG. 2; for hair weight compared with the minoxidil-administered control / hair weight relative to the non-administered control: FIG. 3
From the text: In particular, to confirm the effects of DO-10B, DO-14, DO-17, and DO-20 on hair growth promotion when applied and subcutaneously administered, 6-week-old male C3H/HeNCrljOri mice were purchased and divided into a negative control, a positive control (minoxidil-treated group), and groups treated with DO-10B, DO-14, DO-17, and DO-20 to be used for experiments. To confirm a hair growth effect in the mice, when the mice became 6 weeks of age, first, the hair of the back of each mouse was removed using a clipper.
To confirm the effects of DO-10B, DO-14, DO-17, and DO-20 on hair growth promotion when subcutaneously injected, PBS containing 1 μM DO-10B, DO-14, DO-17, and DO-20 was subcutaneously injected into the hair-removed backs of mice at a daily cycle of 2 to 3 times, and the mice were raised for a total of 2 weeks. After the end of the rearing period, the hair of the back of each mouse was removed again using a mouse clipper, and the weight of the collected hair was measured to compare the hair weights of the non-administered group and the minoxidil-administered group.

Row | Compound | effect on the proliferation of I-DPCs (phase object confluence, %) [1] | proliferation of I-DPCs [1] | hair cycle induction [2] | hair growth, visually confirmed, compared to the non-administered group [2] | hair weight compared with the minoxidil-administered control [2] | hair weight relative to the non-administered control [2]
1 | COc1cc2c(cc1O)[C@@H]1COc3cc(O)ccc3[C@@H]1O2 [DO-17, (6aR, 11aR)-3,8-dihydroxy-9-methoxypterocarpan] | concentration-dependent manner | significantly promoted | induced to the anagen phase | significant hair growth | equal to or greater than that of the minoxidil-administered control | about two-fold or more
2 | COc1ccc2c(c1)OC1c3ccc(O)cc3OCC21 (stereo not drawn) [DO-20, 3-hydroxy-9-methoxypterocarpan] | concentration-dependent manner | significantly promoted | induced to the anagen phase | significant hair growth | equal to or greater than that of the minoxidil-administered control | about two-fold or more
3 | (3R)-5′-methoxyvestiol [DO-14] | concentration-dependent manner | significantly promoted | induced to the anagen phase | significant hair growth | equal to or greater than that of the minoxidil-administered control | about two-fold or more
4 | violanone [DO-10B] | concentration-dependent manner | significantly promoted | induced to the anagen phase | significant hair growth | equal to or greater than that of the minoxidil-administered control | about two-fold or more
